# Article PMC11364104, “Discovery of SARS-CoV-2 papain-like protease (PL^pro) inhibitors with efficacy in a murine infection model” (Science Advances, 2024)
# Where two headings read alike, the source gives them in different places.
# Tests used:
# CYP3A4 = CYP3A4 (Homo sapiens, UniProt P08684); experiment: biochemical
# in vitro [1] = details: both, human, plasma
# [2] = tested on: GABAa (benzodiazepine Site); experiment: CEREP ion channel-binding; details: 30 µM
# Abl Kinase = target: T1, Abl Kinase (Homo sapiens, UniProt P00519); experiment: CEREP kinase inhibition; type: biochemical
# T1 construct: purchased Eurofins Cerep
# in vitro [3] = details: dog, plasma
# [4] = target: T2, Glucocorticoid Receptor (Binding) (Homo sapiens, UniProt P04150); experiment: CEREP NHR-binding
# T2 construct: purchased Eurofins Cerep
# Rat pharmacokinetics = type: in vivo, Wistar-Hannover rat; details: for Vd: rat, iv, 1 mg/kg, read-out: Vdss
# Experimental: Figure S1. Setting Up the Collaboration Workflow and Operations
# Preclinical Pharmacokinetics Studies
# All activities involving animals were carried out in accordance with federal, state, local and institutional guidelines governing the use of laboratory animals in research in AAALAC accredited facilities and were reviewed and approved by Pfizer’s or Bioduro’s Institutional Animal Care and Use committee.
# Mouse pharmacokinetic studies were done at BioDuro Pharmaceutical Product Development Inc. (Shanghai, PRC); male C57BL6 mice were purchased from Vital River (Beijing, China) and were typically 7-9 weeks of age at the time of dosing. During the pharmacokinetic studies all animals were housed individually. Access to food and water was provided ad libitum (i.e., subjects were dosed in the fed state). Compounds were administered intravenously (iv) via tail vein (n=2) dosed as a solution (1 mg/kg, 3 mL/kg) or via oral gavage as a solution (10 mg/kg, 3 mL/kg and 30 mg/kg, 3mL/kg) or as a suspension (15 mg/kg, 10 mL/kg; 50 mg/kg, 10 mL/kg; and 150 mg/kg, 10mL/kg). Dosing solutions were prepared immediately before dosing. The composition of each dosing vehicle is provided in Tables S5 and S6. Isoflurane was administered as anesthesia at 1-2% dose prior to collecting blood samples. Serial blood samples were collected via the retroorbital capillary at predetermined timepoints after dosing. Animals were monitored for pain or distress throughout the study, with at least daily monitoring during normal husbandry prior to study start. At the completion of the study, animals were euthanized by overdose of inhaled carbon dioxide. Blood samples were collected into tubes containing K2EDTA and stored on ice until centrifugation to obtain plasma, which was stored frozen at - 20 °C or lower until bioanalysis.
# Rat pharmacokinetic studies were done at BioDuro Pharmaceutical Product Development Inc. (Shanghai, PRC); jugular vein- cannulated male Wistar-Hannover rats were purchased
# (1 picture or pasted object on this page, not shown here) […]
# from Vital River (Beijing, China) and were typically 7-9 weeks of age at the time of dosing.
# During the pharmacokinetic studies all animals were housed individually. Access to food and water was provided ad libitum (i.e., subjects were dosed in the fed state). In the instances where oral (po) dose was administered in the fed state, with ad libitum access to food and water. Compounds were administered intravenously (iv) via the tail vein (n = 2) dosed as a solution (1 mg/kg, 3 ml/kg) or via oral gavage as a solution (10 mg/kg, 10 ml/kg). Dosing solutions were prepared immediately before dosing. The composition of each dosing vehicle […]
# Serial blood samples were collected via the jugular vein cannula at […]
# centrifugation to obtain plasma, which was stored frozen at - 20 °C or lower.
# Dog pharmacokinetic studies were done at Pfizer (Groton, CT). All procedures performed on beagle dogs were in accordance with regulations and established guidelines and were reviewed and approved by an Institutional Animal Care and Use Committee through an ethical review process. Male Beagle dogs were purchased from Marshall Bioresources (North Rose, NY); subjects 3 years of age were used in pharmacokinetics studies. For each study (n=2), compounds were dosed iv by cephalic vein as a solution (0.5 mg/kg, 1 mL/kg) or via oral gavage as a suspension (3 mg/kg, 5 mL/kg). In the instances where oral (po) dose was administered in the fed state, dogs were fed a couple hours before dosing. In the instances where the IV dose was administered in the fasted state, dogs were fasted over night and fed 4 hours post dose. Subjects were monitored for pain or distress throughout the study followed by at least daily monitoring while off study. The iv dosing vehicle was optimized such that the compounds were in solution and stable for at least 24 h. Serial blood samples were collected via the jugular vein at predefined time points post-dose. Blood […]
# CYP2C9 = CYP2C9 (Homo sapiens, UniProt P11712); experiment: biochemical
# AMPA Receptor = experiment: CEREP ion channel-binding; details: 30 µM
# EGFR Kinase = target: T3, EGFR Kinase (Homo sapiens, UniProt P00533); experiment: CEREP kinase inhibition; type: biochemical
# T3 construct: purchased Eurofins Cerep
# in vitro [5] = details: male, Wistar-Hannover, rat, plasma
# Serotonin 3 = target: T4, Serotonin 3 (Homo sapiens, UniProt P46098); experiment: CEREP ion channel-binding
# T4 construct: purchased Eurofins Cerep
# PDE4D2 = target: T5, PDE4D2 (Homo sapiens, UniProt Q08499); experiment: CEREP enzyme inhibition; type: biochemical
# T5 construct: purchased Eurofins Cerep
# [6] = Wistar-Hannover, plasma, Male Wistar Hanover Rat, 1.0 mg/kg iv, solution, mean n=2
# [7] = Wistar-Hannover, plasma, Male Wistar Hanover Rat, 10 mg/kg po, solution, mean n=2
# T3 sequence (P00533 25-1210): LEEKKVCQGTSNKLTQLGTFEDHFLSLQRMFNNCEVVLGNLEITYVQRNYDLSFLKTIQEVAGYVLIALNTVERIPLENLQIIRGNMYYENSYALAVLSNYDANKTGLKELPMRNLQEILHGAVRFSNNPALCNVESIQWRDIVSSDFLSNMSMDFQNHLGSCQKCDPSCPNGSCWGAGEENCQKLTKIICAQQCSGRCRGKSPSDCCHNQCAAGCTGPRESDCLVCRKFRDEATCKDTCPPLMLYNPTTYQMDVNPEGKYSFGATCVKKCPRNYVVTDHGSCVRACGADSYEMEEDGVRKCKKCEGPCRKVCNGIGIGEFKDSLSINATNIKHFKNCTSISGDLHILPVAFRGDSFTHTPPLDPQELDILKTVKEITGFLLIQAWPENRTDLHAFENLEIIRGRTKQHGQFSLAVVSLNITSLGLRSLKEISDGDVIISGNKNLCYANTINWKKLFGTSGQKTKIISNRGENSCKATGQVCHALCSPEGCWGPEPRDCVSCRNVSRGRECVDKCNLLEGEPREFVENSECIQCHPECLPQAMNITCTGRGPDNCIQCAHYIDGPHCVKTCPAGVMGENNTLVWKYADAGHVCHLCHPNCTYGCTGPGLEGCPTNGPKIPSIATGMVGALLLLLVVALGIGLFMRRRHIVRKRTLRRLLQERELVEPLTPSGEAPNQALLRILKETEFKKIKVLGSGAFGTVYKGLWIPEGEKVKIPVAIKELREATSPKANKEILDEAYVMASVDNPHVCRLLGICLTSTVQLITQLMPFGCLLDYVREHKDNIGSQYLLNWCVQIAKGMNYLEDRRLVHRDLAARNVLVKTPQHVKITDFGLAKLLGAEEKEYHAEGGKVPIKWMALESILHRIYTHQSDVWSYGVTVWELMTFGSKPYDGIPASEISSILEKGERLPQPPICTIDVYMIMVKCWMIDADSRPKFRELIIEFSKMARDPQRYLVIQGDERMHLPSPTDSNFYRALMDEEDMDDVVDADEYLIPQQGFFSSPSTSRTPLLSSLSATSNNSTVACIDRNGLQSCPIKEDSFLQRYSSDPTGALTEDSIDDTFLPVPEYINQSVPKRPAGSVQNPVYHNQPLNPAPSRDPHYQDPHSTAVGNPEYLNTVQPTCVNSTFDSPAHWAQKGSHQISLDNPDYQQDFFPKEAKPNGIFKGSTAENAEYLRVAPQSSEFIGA
# CYP2C9, sequence (P11712 whole entry): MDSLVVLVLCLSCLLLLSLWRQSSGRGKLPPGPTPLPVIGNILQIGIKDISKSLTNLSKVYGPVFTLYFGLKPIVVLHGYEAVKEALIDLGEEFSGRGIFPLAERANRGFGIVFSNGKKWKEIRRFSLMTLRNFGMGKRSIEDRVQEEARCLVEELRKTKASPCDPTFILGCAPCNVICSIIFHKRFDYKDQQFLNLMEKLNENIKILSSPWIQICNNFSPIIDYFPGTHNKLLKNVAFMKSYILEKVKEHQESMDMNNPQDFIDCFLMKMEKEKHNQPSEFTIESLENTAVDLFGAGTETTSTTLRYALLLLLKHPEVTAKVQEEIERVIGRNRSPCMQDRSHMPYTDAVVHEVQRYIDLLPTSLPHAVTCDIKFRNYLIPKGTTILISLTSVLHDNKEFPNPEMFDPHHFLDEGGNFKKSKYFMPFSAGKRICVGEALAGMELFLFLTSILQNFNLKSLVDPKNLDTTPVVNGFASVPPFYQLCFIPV
# CYP3A4, sequence (P08684 whole entry): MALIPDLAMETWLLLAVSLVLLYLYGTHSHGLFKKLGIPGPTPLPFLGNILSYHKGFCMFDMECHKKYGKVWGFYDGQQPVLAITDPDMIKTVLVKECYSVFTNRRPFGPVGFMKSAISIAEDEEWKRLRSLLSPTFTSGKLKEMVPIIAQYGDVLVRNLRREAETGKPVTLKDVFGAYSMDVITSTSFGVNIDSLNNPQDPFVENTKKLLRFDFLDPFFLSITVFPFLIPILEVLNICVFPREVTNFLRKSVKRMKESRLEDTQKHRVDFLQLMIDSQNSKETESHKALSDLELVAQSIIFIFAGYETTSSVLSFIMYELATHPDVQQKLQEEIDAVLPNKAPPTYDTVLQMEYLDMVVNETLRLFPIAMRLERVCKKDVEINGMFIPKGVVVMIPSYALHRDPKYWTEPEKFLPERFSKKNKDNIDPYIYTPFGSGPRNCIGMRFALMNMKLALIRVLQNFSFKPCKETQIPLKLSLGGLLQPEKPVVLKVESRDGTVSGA
# T1 sequence (P00519 whole entry): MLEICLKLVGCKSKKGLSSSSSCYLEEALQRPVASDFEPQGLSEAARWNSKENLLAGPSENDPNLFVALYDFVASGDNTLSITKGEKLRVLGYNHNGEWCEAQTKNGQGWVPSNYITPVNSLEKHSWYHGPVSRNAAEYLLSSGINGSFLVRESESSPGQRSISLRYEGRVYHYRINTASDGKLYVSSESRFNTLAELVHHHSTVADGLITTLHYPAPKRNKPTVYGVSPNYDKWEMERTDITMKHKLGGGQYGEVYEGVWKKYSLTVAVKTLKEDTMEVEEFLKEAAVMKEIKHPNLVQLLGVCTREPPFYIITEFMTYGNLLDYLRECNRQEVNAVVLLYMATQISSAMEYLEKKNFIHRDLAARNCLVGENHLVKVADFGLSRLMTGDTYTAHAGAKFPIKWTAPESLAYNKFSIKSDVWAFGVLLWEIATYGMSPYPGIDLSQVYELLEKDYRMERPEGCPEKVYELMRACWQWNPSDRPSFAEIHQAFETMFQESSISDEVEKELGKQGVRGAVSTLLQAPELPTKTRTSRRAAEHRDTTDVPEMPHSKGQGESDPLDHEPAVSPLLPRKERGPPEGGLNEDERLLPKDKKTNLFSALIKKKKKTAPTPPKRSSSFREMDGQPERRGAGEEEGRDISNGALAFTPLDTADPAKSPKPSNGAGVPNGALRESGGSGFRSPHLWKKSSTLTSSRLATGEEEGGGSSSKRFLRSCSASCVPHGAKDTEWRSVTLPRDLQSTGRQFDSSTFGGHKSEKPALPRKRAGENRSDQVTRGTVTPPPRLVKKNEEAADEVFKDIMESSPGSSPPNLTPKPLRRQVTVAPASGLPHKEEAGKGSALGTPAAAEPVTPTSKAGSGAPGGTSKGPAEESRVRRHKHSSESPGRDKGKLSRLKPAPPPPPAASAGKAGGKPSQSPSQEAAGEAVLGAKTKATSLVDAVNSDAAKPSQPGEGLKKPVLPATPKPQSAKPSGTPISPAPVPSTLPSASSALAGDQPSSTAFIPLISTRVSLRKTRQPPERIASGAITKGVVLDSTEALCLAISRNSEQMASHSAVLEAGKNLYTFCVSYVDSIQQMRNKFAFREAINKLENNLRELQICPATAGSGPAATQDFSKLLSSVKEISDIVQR
# T4 sequence (P46098 24-478): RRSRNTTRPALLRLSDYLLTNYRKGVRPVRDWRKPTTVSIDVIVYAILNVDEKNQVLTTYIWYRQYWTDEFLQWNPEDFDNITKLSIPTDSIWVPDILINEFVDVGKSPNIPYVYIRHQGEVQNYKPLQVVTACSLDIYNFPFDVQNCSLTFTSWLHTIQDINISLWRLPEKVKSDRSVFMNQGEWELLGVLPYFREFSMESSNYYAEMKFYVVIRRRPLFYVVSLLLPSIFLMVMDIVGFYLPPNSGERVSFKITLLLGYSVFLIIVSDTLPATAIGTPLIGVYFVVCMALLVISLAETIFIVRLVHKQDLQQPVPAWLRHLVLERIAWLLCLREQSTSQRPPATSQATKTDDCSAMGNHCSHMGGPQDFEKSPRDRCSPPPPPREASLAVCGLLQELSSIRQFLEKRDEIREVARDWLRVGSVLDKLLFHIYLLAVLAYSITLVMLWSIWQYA
# T2 sequence (P04150 whole entry): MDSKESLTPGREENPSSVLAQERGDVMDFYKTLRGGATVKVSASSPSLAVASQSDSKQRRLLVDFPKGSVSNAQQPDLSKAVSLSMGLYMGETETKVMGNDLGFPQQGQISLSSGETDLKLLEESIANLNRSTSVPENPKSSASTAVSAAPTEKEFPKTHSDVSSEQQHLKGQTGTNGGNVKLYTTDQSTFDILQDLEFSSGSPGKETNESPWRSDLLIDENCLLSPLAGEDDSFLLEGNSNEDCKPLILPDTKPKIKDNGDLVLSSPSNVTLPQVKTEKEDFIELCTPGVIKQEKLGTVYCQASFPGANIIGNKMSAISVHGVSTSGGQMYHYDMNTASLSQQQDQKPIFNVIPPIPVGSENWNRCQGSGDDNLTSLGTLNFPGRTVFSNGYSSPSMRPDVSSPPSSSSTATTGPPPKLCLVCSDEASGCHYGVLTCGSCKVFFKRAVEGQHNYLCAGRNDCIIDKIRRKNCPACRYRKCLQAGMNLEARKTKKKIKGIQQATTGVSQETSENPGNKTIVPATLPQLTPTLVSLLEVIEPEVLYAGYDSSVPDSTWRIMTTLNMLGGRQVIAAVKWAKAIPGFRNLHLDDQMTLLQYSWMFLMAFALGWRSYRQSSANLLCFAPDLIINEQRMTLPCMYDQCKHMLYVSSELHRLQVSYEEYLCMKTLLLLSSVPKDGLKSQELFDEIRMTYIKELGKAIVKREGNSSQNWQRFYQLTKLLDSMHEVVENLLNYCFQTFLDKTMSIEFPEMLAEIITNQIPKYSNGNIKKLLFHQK
# T5 sequence (Q08499 303-809): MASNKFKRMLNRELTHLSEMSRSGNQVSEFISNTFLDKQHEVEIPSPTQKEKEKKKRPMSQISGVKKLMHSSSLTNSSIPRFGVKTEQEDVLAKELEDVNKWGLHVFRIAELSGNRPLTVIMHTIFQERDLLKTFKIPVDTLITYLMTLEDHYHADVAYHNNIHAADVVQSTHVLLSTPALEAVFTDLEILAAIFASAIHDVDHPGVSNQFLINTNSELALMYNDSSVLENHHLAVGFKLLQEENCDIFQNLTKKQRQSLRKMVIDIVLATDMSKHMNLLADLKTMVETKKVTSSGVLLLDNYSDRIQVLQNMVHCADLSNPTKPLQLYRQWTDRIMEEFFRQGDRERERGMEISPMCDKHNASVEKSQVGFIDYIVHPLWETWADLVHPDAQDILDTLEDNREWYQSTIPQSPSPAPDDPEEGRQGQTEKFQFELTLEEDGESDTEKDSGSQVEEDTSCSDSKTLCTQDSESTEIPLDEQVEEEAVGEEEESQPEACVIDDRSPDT
compound,measurement,setting,value
Cc1ccc(N2CCN(C)CC2)cc1C(=O)NC1(c2cc(-c3cnn(C)c3)nc3ccccc23)CC1 [Compound 4],IC50,CYP3A4,> 30 µM
same,fraction unbound,in vitro [1],0.109
same,% inhibition,[2],7%
same,inhibition at 30 µM,Abl Kinase,2%
same,fraction unbound,in vitro [3],0.176
same,inhibition at 30 µM,[4],2%
same,Oral F,"Rat pharmacokinetics; Male Wistar Hanover Rat, 10 mg/kg po, solution, mean n=2",69.7%
same,AUC(0-inf),Rat pharmacokinetics; [6],668 ng·h/mL
same,half-life,Rat pharmacokinetics; [6],3.59 h
same,clearance,"Rat pharmacokinetics; Wistar-Hannover, plasma, Male Wistar Hanover Rat, 1.0 mg/kg iv, solution, mean n=2, read-out: CLp",25.2 mL/min/kg
same,AUC(0-inf),Rat pharmacokinetics; [7],4650 ng·h/mL
same,Cmax,Rat pharmacokinetics; [7],435 ng/mL
same,Tmax,Rat pharmacokinetics; [7],3 h
same,half-life,Rat pharmacokinetics; [7],3.19 h
same,bioavailability,"Rat pharmacokinetics; male, Wistar-Hannover, plasma, po, 10 mg/kg, rat (r), read-out: Oral F (%)",69.7%
same,Vd,"Rat pharmacokinetics; male, Wistar-Hannover, plasma, Male Wistar Hanover Rat, 1.0 mg/kg iv, solution, mean n=2",4.42 L/kg
same,Vd,"Rat pharmacokinetics; male, Wistar-Hannover, plasma, rat (r), intravenous",4.4 L/kg
same,IC50,CYP2C9,> 30 µM
same,% inhibition,AMPA Receptor,13%
same,inhibition at 30 µM,EGFR Kinase,9%
same,fraction unbound,in vitro [5],0.241
same,inhibition at 30 µM,Serotonin 3,-10%
same,inhibition at 30 µM,PDE4D2,20%
